Read-outs that look alike come from different tables or passages of the source.
Experiments:
CHO dhfr- cells = assay: Release of [3H]-labeled arachidonic acid from control CHO dhfr- cells (Example 7); type: cell-based, Chinese hamster; conditions: TRH added (FIG. 10)
Method: (§1) CHO cells into which the human TRH receptor DNAs obtained in Example 4 were subcultured at a density of 1.0×10^6 cells/well to a 12-well tissue culture plate (Sumitomo Bakelite) and cultivated for 24 hours. The medium was removed and replaced by a fresh medium. Then, [^3 H] […] arachidonic acid (du Pont/NEN, specific activity: 60-100 Ci/mmol) was added to give a concentration of 0.5 μCi/well. After addition of arachidonic acid, the cells were further cultivated for 24 hours, and washed three times with Hanks' balanced salt solution (HBSS) supplemented with 0.05% BSA. Thereafter, 495 μl/well of HBSS supplemented with 0.05% BSA was added thereto. Then, 5 μl of a test solution was added thereto, and incubation was conducted for 30 minutes at room temperature to release arachidonic acid in the medium. HBSS (400 μl) of the supernatant was recovered, and mixed with liquid scintillator A (Wako Pure Chemical Industries). The amount of released [^3 H]-labeled arachidonic acid was measured by use of a liquid scintillation counter (Beckmann).

human TRH receptor [1] = biological target: T1, human TRH receptor (Homo sapiens, UniProt P34981); assay: Antagonism of [3H]TRH binding in CHO dhfr- cells transformed with human TRH receptor DNA (Examples 5 and 6); set-up: translation frame (open reading frame) of the human TRH receptor was constructed on pUC118; expressed in transfected cells; host or cells: CHO dhfr- cells (plasmid pAKKO1.11 with the human TRH receptor open reading frame); conditions: 1 h
T1 sequence (P34981 1-398): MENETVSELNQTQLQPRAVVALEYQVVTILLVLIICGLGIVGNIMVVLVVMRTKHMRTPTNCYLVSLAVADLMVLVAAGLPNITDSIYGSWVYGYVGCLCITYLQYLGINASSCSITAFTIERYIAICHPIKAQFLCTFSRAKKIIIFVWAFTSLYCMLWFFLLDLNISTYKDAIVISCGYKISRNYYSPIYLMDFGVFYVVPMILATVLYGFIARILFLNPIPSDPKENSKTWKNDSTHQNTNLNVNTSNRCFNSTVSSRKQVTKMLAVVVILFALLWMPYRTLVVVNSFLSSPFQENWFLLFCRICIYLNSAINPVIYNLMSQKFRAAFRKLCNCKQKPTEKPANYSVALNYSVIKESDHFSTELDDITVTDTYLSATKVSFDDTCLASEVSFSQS

human TRH receptor [2] = biological target: T1, human TRH receptor; assay: Release of [3H]-labeled arachidonic acid from CHO cells into which human TRH receptor DNAs were introduced (Example 7); type: cell-based; set-up: translation frame (open reading frame) of the human TRH receptor was constructed on pUC118; expressed in transfected cells; host or cells: CHO dhfr- cells (plasmid pAKKO1.11 with the human TRH receptor open reading frame); conditions: TRH concentration dependence, compared with control (HBSS alone) (FIG. 10)
Method: as §1
Further, in the receptor binding experiment of Example 6, the releasing activity of arachidonic acid was measured using 4 kinds of compounds strongly that can antagonize the binding of [^3 H]

human TRH receptor [3] = biological target: T1, human TRH receptor; assay: [3H]TRH binding to Sf9 cells infected with recombinant baculovirus carrying human TRH receptor genes (Example 3); set-up: translation frame (open reading frame) of the human TRH receptor was constructed on pUC118; expressed in transfected cells; conditions: 1000-fold unlabeled TRH (10 μM) (FIG. 8)
human TRH receptor [4] = biological target: T1, human TRH receptor; assay: c-fos promoter / secretive alkaline phosphatase assay in human TRH receptor expression CHO cells (Example 9); type: cell-based; set-up: translation frame (open reading frame) of the human TRH receptor was constructed on pUC118; expressed in transfected cells; host or cells: CHO dhfr- cells (plasmid pAKKO1.11 with the human TRH receptor open reading frame); conditions: c-fos promoter activation, overnight (FIG. 14)
Method: An insertion of a secretive alkaline phosphatase gene linked to a c-fos promoter into a TRH receptor expression cell was conducted as follows:
5×10^5 TRH receptor expression CHO cells were inoculated onto a 10 cm plate and they were cultivated for 24 hours in Ham's F12 medium (Lifetech Oriental) equipped with 10% fetal bovine serum. 3 μg of a vector (pSVP4-Ap-neo, FIG. 13) which was introduced by a secretive alkaline phosphatase gene downstream from the c-fos promoter was introduced into the CHO cells using a gene introducing kit (Cell Phect, Pharmacia) by calcium phosphate method. The cells introduced by the vector were cloned in the above-described medium equipped with 500 μg/ml of G418. 39 clones were isolated and clones which have high TRH responsiveness were further selected.
Cell stimulating activity through a TRH receptor using activation of c-fos promoter as an indicator was assayed as follows:
Each 5×10^4 of the above-described transformants were inoculated onto 96 hole plates for tissue cultivation (Corning) and they were cultivated for a night. […] The plate was assayed by a fluorescence plate reader (Fluoroskan II, Titertek) at 365 nm of excitation and 450 nm of luminescence.

pituitary glands = conditions: literature; cited from earlier work
[5] = read-out: Antagonistic Rate (%) at Each Concentration (-log M)
[6] = read-out: Antagonistic Rate (%) at Each Concentration (-log M) (*1)

## NC(=O)[C@@H]1CCCN1C(=O)[C@H](Cc1cnc[nH]1)NC(=O)[C@@H]1CCC(=O)N1 [TRH, pGlu His Pro NH2]
CHO dhfr- cells
  Amount of arachidonic acid released, in words: no change was observed
Human TRH receptor [1]; [5]
  inhibition at 1 pM: 0%
  inhibition at 10 pM: 0.7%
  inhibition at 0.0001 µM: 0.3%
  inhibition at 0.001 µM: 7.2%
  inhibition at 0.01 µM: 52%
  inhibition at 0.1 µM: 90.7%
  inhibition at 1 µM: 98.7%
  inhibition at 10 µM: 99.7%
Human TRH receptor [1]; [6]
  inhibition at 0.0001 µM: -0.7%
  inhibition at 0.001 µM: 4.2%
  inhibition at 0.01 µM: 39.8%
  inhibition at 0.1 µM: 83.9%
  inhibition at 1 µM: 97.8%
  inhibition at 10 µM: 99.7%
Human TRH receptor [2]
  Amount of arachidonic acid released, in words: increase the amount of arachidonic acid released depending upon the concentration
Human TRH receptor [3]
  Antagonism of [3H]TRH binding by unlabeled TRH, in words: antagonized the binding
Human TRH receptor [4]
  Alkaline phosphatase secretion into supernatant, in words: alkaline phosphatase secrets into the supernatant depending on the concentration of TRH added
Pituitary glands
  Secretion of pituitary hormones, in words: promoting secretion of thyroid stimulating hormone and prolactin of the pituitary glands
